9 molecules from patent publication US8168592B2 (Amgen Inc., priority 2005, dated 2012) can be followed below.

The conditions of data set [1]: mouse.
Description: Peptide samples at 2 mg/ml in PBS were spiked with 5% mouse plasma and analyzed by sandwich ELISA (as described in Example 3 herein above) over 48 hours at room temperature. Peptide integrity was determined by sandwich ELISA requiring intact peptide termini.
The target in data set [2] is T1, CGRP1 receptor (Homo sapiens, UniProt O60894+Q16602).
T1 construct: SK-N-MC cells express CRLR and RAMP1, which form CGRP1 receptor; endogenous in cells; host or cells: SK-N-MC human neuroblastoma cells
As to the kind of experiment: in vitro CGRP1 receptor mediated cAMP assay in SK-N-MC cells. It counts as cell-based. The settings on record: cAMP assay. In short, it runs like this: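 Human SK-N-MC neuroblastoma cells, which endogenously express CRLR/RAMP1, were plated two days before assay and preincubated in plasma-free medium for 15 minutes at room temperature. Cells were then lysed for 30 minutes at 37° C, and cAMP in the lysates was quantified by competitive cAMP-AP chemiluminescent ELISA.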

The nature of data set [3]: solubility in aqueous conjugation buffers. It counts as physicochemical. The procedure: Co-solvent mediated conjugation of vehicle to CGRP peptide antagonists. […] In an attempt to better solubilize these less soluble peptides during the conjugation reaction, and thereby improve conjugate yields, a variety of alcohol co-solvents were tested in the conjugation reaction.

Data set [4] can be described thus: in vivo metabolic identification in monkey plasma during intravenous infusion. Details: species or system Cynomolgus monkey. The following applies: 20 min during intravenous infusion. From the text: Monkey pharmacokinetic studies.
Samples were taken as described above. After thawing, each 100-11 plasma sample was extracted by solid phase extraction. Extracted samples were collected for LC-MS/MS analysis.

The nature of data set [5]: in vitro metabolic identification in 100% monkey plasma, LC-MS/MS. Format: in vitro ADME. The settings on record: 100% Cynomolgus monkey plasma, 4 hours. An excerpt: Extracted samples were collected for LC-MS/MS analysis.
(Also, see Example 7 herein below for comparison with in vivo metabolic identification.)

A short description of data set [6]: monkey plasma during 30 minutes of intravenous infusion. The settings on record: Cynomolgus monkeys (Macaca fascicularis), up to 20 min during the infusion.
The nature of data set [7]: 100% human plasma. The settings on record: room temperature, up to 4 hour.
Data set [8] is described as follows: 100% Cynomolgus monkey plasma. The settings on record: room temperature, up to 4 hour.
For data set [9], the target named is T2, CGRP1 receptor (Rattus norvegicus, UniProt Q63118+Q9JJ74).
T2 construct: from tissue; host or cells: living anaesthetised rat, abdominal skin
As to the kind of experiment: laser Doppler blood flowmetry assay (hαCGRP-induced skin blood flow). It counts as in vivo. The settings on record: i.v., pre-treatment 5 minutes. The method, then: Methods. An automated laser Doppler blood flowmetry device is used (MoorLDI®; Moor Instrument, Devon, UK). The device was turned on prior to the start of experiments and allowed to warm up for 20 minutes. Blood flow data (in FLUX) were read from software records (see below).
For each rat, the experimental procedure was performed within a single day and was each rat was sacrificed on the same day immediately after the experiment was over. On an experiment day, each rat was weighed and administered 1 ml/kg (intramuscular injection in right leg) of an anesthetic cocktail consisting of Ketamine, Xylazine and PBS (5:3:2). […] A small dot was placed near the center of the abdomen using a marker. The animal was then ready for the experiment.
Approximately 20 min after the injection of the anesthetic cocktail, baseline blood flow readings were collected for each animal. Each rat was placed under the laser Doppler scanning device, matching the laser with the marker dot on the abdomen. Using the device's software package, the device was activated and the surface of the abdomen was scanned for 1 min with the laser. The scan area was 4 cm×4 cm. […]
In some cases, plasma IC50 values were calculated by performing least squares linear regression on log plasma concentration values (nM) vs. % change in blood flow values calculated for individual rats.

In data set [10] the target is rat CGRP1 receptor (Rattus norvegicus, UniProt Q63118+Q9JJ74). As to the kind of experiment: in vitro functional potency against the rat ortholog of the CGRP1 receptor. Format: cell-based. An excerpt:
Results and Conclusions. […] This was reflected by an apparently similar rightward shift in potency in vivo.

Data set [11] can be described thus: rat plasma (10% rat plasma in the legend of FIG. 2). The settings on record: room temperature, up to 1 hour.

Entries after “also recorded” stand apart in the source; their conditions may differ. PEG = not defined here

T1 sequence (Q16602 23-461): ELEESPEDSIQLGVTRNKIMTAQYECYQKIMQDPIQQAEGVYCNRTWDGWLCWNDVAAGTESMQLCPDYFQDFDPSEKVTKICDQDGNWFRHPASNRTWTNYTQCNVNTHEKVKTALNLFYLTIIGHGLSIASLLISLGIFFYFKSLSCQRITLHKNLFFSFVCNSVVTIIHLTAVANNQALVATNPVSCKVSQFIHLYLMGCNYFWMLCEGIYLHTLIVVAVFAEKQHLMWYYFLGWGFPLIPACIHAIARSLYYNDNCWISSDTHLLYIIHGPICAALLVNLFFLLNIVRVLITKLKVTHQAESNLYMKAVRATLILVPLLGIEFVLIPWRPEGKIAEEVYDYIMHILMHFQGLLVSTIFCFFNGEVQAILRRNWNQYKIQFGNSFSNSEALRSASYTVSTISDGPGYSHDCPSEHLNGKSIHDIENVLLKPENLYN
T1 sequence (O60894 27-148): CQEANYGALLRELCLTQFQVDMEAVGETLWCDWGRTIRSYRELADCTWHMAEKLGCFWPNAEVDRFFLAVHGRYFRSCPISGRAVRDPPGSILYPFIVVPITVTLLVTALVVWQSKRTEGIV
T2 sequence (Q63118 24-464): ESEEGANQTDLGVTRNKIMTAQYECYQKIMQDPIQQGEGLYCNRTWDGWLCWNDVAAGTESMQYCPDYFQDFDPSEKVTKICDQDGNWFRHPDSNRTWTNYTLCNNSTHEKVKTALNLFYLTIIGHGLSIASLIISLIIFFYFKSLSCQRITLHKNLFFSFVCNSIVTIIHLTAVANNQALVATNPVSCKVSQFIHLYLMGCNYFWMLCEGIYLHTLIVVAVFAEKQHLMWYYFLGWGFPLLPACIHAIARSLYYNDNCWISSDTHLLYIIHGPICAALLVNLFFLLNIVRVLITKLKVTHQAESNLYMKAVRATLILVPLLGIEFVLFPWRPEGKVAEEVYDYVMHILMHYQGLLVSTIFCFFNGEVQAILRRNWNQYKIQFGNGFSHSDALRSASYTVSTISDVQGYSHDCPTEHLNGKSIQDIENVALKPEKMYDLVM
T2 sequence (Q9JJ74 27-148): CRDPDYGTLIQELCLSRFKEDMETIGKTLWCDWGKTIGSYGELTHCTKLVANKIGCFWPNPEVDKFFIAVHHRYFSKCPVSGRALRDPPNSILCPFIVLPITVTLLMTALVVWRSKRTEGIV
Chain of rat CGRP1 receptor (Q63118 24-464): as the sequence (Q63118 24-464) above
Chain of rat CGRP1 receptor (Q9JJ74 27-148): as the sequence (Q9JJ74 27-148) above

With “SEQ ID NO:15 (Ac-WVTHRLAGLLSRSGGVVRK(PEG)NFVPTDVGPFAF-NH2; reading uncertain)”, the “half-life longer than the non-PEGylated parent peptide” value in data set [1] is “more than 9 fold”. For the same molecule, in [2], the “improved potency relative to native CGRP(8-37) (SEQ ID NO:1)” value is “about 12 fold” and the “loss in antagonist activity on PEGylation relative to the unconjugated parent peptide” value is “three”.
In the case of `CC(=O)N[C@@H](Cc1c[nH]c2ccccc12)C(=O)N[C@H](C(=O)N[C@H](C(=O)N[C@@H](Cc1c[nH]cn1)C(=O)N[C@@H](CCCNC(N)=O)C(=O)N[C@@H](CC(C)C)C(=O)N[C@@H](C)C(=O)NCC(=O)N[C@@H](CC(C)C)C(=O)N[C@@H](CC(C)C)C(=O)N[C@@H](CO)C(=O)N[C@@H](CCCNC(N)=O)C(=O)N[C@@H](CO)C(=O)NCC(=O)NCC(=O)N[C@H](C(=O)N[C@H](C(=O)N[C@@H](CCCCNC(=N)N)C(=O)N[C@@H](CCCCN)C(=O)N[C@@H](CC(N)=O)C(=O)N[C@@H](Cc1ccccc1)C(=O)N[C@H](C(=O)N1CCC[C@H]1C(=O)N[C@H](C(=O)N[C@@H](CC(=O)O)C(=O)N[C@H](C(=O)NCC(=O)N1[C@H](C(=O)N[C@@H](Cc2ccccc2)C(=O)N[C@@H](C)C(=O)N[C@@H](Cc2ccccc2)C(N)=O)C[C@@H]2CCCC[C@@H]21)C(C)C)[C@@H](C)O)C(C)C)C(C)C)C(C)C)[C@@H](C)O)C(C)C` [SEQ ID NO:658], the solubility in words result in data set [3] was “relatively insoluble”. Further, the “degradation products in vivo” value in data set [4] was “fragments W7-T9, T30-A36, W7-N26, T30-F37 and W7-hR24”. Moreover, the major degradation product entry in data set [5] is recorded as “fragment W7-K25”.
Take “Ac-WVTH[Cit]LAGLLS[Cit]SGGVV[hArg]KNFVPTDVG[Oic]FAF-NH2”: the fragment found result in data set [6] is given as “W7-T9, 20 min during the infusion; also recorded: T30-A36, 20 min during the infusion; also recorded: W7-N26, 20 min during the infusion; also recorded: T30-F37, 20 min during the infusion; also recorded: W7-hR24, 20 min during the infusion”; in [7], “W7-hR24, major”; in data set [8], “W7-K25, major”.
`CC(=O)N[C@@H](Cc1c[nH]c2ccccc12)C(=O)N[C@H](C(=O)N[C@H](C(=O)N[C@@H](Cc1cnc[nH]1)C(=O)N[C@@H](CCCNC(N)=O)C(=O)N[C@@H](CC(C)C)C(=O)N[C@@H](C)C(=O)NCC(=O)N[C@@H](CC(C)C)C(=O)N[C@@H](CC(C)C)C(=O)N[C@@H](CO)C(=O)N[C@@H](CCCNC(N)=O)C(=O)N[C@@H](CO)C(=O)NCC(=O)NCC(=O)N[C@H](C(=O)N[C@H](C(=O)N[C@@H](CCCCNC(=N)N)C(=O)N[C@@H](CCCCN)C(=O)N[C@@H](CC(N)=O)C(=O)N[C@@H](Cc1ccccc1)C(=O)N[C@H](C(=O)N1CCC[C@H]1C(=O)N[C@H](C(=O)N[C@@H](CC(=O)O)C(=O)N[C@H](C(=O)NCC(=O)N1CCC[C@H]1C(=O)N[C@@H](Cc1ccccc1)C(=O)N[C@@H](C)C(=O)N[C@@H](Cc1ccccc1)C(N)=O)C(C)C)[C@@H](C)O)C(C)C)C(C)C)C(C)C)[C@@H](C)O)C(C)C` [SEQ ID NO:739]: the solubility in words entry in data set [3] is “relatively insoluble”.
For the molecule `CC(=O)N[C@@H](Cc1c[nH]c2ccccc12)C(=O)N[C@H](C(=O)N[C@H](C(=O)N[C@@H](Cc1c[nH]cn1)C(=O)N[C@@H](CCCNC(N)=O)C(=O)N[C@@H](CC(C)C)C(=O)N[C@@H](C)C(=O)NCC(=O)N[C@@H](CC(C)C)C(=O)N[C@@H](CC(C)C)C(=O)N[C@@H](CO)C(=O)N[C@@H](CCCNC(N)=O)C(=O)N[C@@H](CO)C(=O)NCC(=O)NCC(=O)N[C@H](C(=O)N[C@H](C(=O)N[C@@H](CCCCNC(=N)N)C(=O)N[C@@H](CCCCN)C(=O)N[C@@H](CC(N)=O)C(=O)N[C@@H](Cc1ccccc1)C(=O)N[C@H](C(=O)N1CCC[C@H]1C(=O)N[C@H](C(=O)N[C@@H](CC(=O)O)C(=O)N[C@H](C(=O)NCC(=O)N1CCC[C@H]1C(=O)N[C@@H](Cc1ccccc1)C(=O)N[C@@H](C)C(=O)N[C@@H](Cc1ccccc1)C(N)=O)C(C)C)[C@@H](C)O)C(C)C)C(C)C)C(C)C)[C@@H](C)O)C(C)C` [Compound 739], the “Efficacy observed (%) (at highest dose tested)” value in [9] (6 mg/kg) is reported as 100%.
In the case of `CC(=O)N[C@@H](Cc1c[nH]c2ccccc12)C(=O)N[C@H](C(=O)N[C@H](C(=O)N[C@@H](Cc1c[nH]cn1)C(=O)N[C@@H](CCCNC(=N)N)C(=O)N[C@@H](CC(C)C)C(=O)N[C@@H](C)C(=O)NCC(=O)N[C@@H](CC(C)C)C(=O)N[C@@H](CC(C)C)C(=O)N[C@@H](CO)C(=O)N[C@@H](CCCNC(=N)N)C(=O)N[C@@H](CO)C(=O)NCC(=O)NCC(=O)N[C@H](C(=O)N[C@H](C(=O)N[C@@H](CCCNC(=N)N)C(=O)N[C@@H](CCCCN)C(=O)N[C@@H](CC(N)=O)C(=O)N[C@@H](Cc1ccccc1)C(=O)N[C@H](C(=O)N1CCC[C@H]1C(=O)N[C@H](C(=O)N[C@@H](CC(=O)O)C(=O)N[C@H](C(=O)NCC(=O)N1CCC[C@H]1C(=O)N[C@@H](Cc1ccccc1)C(=O)N[C@@H](C)C(=O)N[C@@H](Cc1ccccc1)C(N)=O)C(C)C)[C@@H](C)O)C(C)C)C(C)C)C(C)C)[C@@H](C)O)C(C)C` [Compound 808], the “Efficacy observed (%) (at highest dose tested)” value in [9] (0.6 mg/kg) is listed as 100%.
Consider “SEQ ID NO:791 (WVTHXLAGLLSXSGGVVRKNFVPTDVGPFAF; not fully specified; CGRP peptide; MOD_RES (1)..(1): …ON; MISC_FEATURE (5)..(5): xaa=citrulline; MISC_FEATURE (12)..(12): xaa=citrulline; MISC_FEATURE (19)..(19): PEGylated; MOD_RES (31)..(31): AMIDATION)”, for which the “rightward shift of in vitro potency compared with SEQ ID NO:31” value in [10] is given as “approximately 9 fold”.
In the case of `CC(=O)N[C@@H](Cc1c[nH]c2ccccc12)C(=O)N[C@H](C(=O)N[C@H](C(=O)N[C@@H](Cc1cnc[nH]1)C(=O)N[C@@H](CCCN=C(N)N)C(=O)N[C@@H](CC(C)C)C(=O)N[C@@H](C)C(=O)NCC(=O)N[C@@H](CC(C)C)C(=O)N[C@@H](CC(C)C)C(=O)N[C@@H](CO)C(=O)N[C@@H](CCCN=C(N)N)C(=O)N[C@@H](CO)C(=O)NCC(=O)NCC(=O)N[C@H](C(=O)N[C@H](C(=O)N[C@@H](CCCN=C(N)N)C(=O)N[C@@H](CCCCN)C(=O)N[C@@H](CC(N)=O)C(=O)N[C@@H](Cc1ccccc1)C(=O)N[C@H](C(=O)N1CCC[C@H]1C(=O)N[C@H](C(=O)N[C@@H](CC(=O)O)C(=O)N[C@H](C(=O)NCC(=O)N1CCC[C@H]1C(=O)N[C@@H](Cc1ccccc1)C(=O)N[C@@H](C)C(=O)N[C@@H](Cc1ccccc1)C(N)=O)C(C)C)[C@@H](C)O)C(C)C)C(C)C)C(C)C)[C@@H](C)O)C(C)C` [SEQ. ID NO: 7], the solubility in words entry in data set [3] is on record as “relatively soluble”.
Turning to Ac-WVTHRLAGLLSRSGGVVRKNFVPTDVGPFAF-NH2, the cleaved bond entry in [11] was “L16-S17, major; also recorded: S17-R18, major; also recorded: R18-S19, major”.
